Assay results from PMC8448719 (Archives of Toxicology, 2021).
Read-outs that look alike come from different tables or passages of the source.

Assays:
[1] = Metabolism of BaP in incubations with rat liver microsomes; assay type: in vitro ADME, rat
Protocol: (§1) All in vitro Vmax values were scaled to microsomal or S9 protein content of rat liver using the following scaling factors: 45 mg microsomal protein per gram liver tissue and 125 mg S9 protein per gram liver tissue (Houston and Galetin [2008]). The scaled Vmax values were subsequently converted to Vmax in nmol/min/liver using the liver weight of 9.1 g, calculated from the body weight and fractional liver weight presented in Table 1. The Km in vitro was assumed equal to the Km in vivo.
(§2) The incubation mixtures consisted of (final concentrations) 0.1 mM potassium phosphate (pH 7.4), 5 mM MgCl2, 0.5 mg/ml rat liver microsomes or 2 mg/ml rat lung microsomes, and 1 mM NADPH in conical glass vials. […] The mixtures were incubated in a shaking water bath at 37 °C for 30 min. 20 µl ice-cold 10% (v/v) perchloric acid (HClO4) was added to terminate the reactions and the mixtures were put on ice for at least 15 min. Di-isopropyl ether (DIPE) was used to extract BaP and its metabolites from the incubation mixture. To this end, 1 ml DIPE was added to each incubation mixture, the tubes vortexed for 20 s and the upper layer was collected. Extraction was performed three times. Remaining DIPE was removed by evaporation under a stream of N2. Subsequently, extracts were re-dissolved in 100 µl methanol and transferred to UPLC vials for analysis.
The UPLC was equipped with a Photodiode Array (PDA) detector, recording wavelengths between 190 and 400 nm and a Phenomenex C18 column (Phenomenex, Torrance, California, United States). The column temperature was kept at 40 °C and the auto-sampler at 4 °C during analysis. The mobile phase consisted of Nanopure water containing 0.1% (v/v) trifluoroacetic acid (TFA) (A) and acetonitrile containing 0.1% (v/v) TFA (B) at a flow rate of 0.3 ml/min. The total run time was 23 min and 30 s, starting with 10% B for 30 s, increasing to 100% B in 15 min, maintaining this condition for 3 min before returning to the initial conditions of 10% B in 30 s. 10 µl of sample was injected per run. Under these conditions the metabolite 3-OHBaP, detected at 258 nm, eluted at 10.16 min. For the glucuronidated and sulfonated metabolite of 3-OHBaP, retention time and detection wavelength were 7.5 min, 303.3 nm and 7.4 min, 301 nm, respectively. The amounts of 3-OHBaP in the microsomal incubation sample and of glucuronidated and sulfated 3-OHBaP in the S9 incubation samples were quantified by integrating peak areas at their respective wavelengths using a calibration curve prepared with commercially available 3-OHBaP. To obtain the Vmax and Km the in vitro data for the substrate concentration-dependent rate of metabolite formation were fitted to the Michaelis–Menten equation using Graphpad Prism 9.0.1 for Windows (GraphPad Software, San Diego, California, USA).

[2] = rat PBK model; ref Crowell et al. (2011); cited from earlier work
[3] = system: ES-D3 cells; set-up: method as in Kamelia et al. (2020); conditions: without bioactivation; ref Kamelia et al. (2020); cited from earlier work
[4] = PBK model prediction of 3-OHBaP blood concentrations in rat; conditions: intravenous; Marie et al. (2010)
Description: The conceptual PBK model for BaP consisted of separate compartments for venous blood, arterial blood, fat tissue, liver tissue, lung tissue, rapidly and slowly perfused tissue, stomach and intestines. 3-OHBaP is highly lipophilic. To prevent 3-OHBaP from partitioning into the fat tissue in the model simulations, it was essential to include a blood protein compartment in the model to allow binding of 3-OHBaP to blood protein. The unbound fraction of 3-OHBaP in the blood compartment was represented by the fub, in vivo, calculated as described in “Translating in vitro concentration–response data into in vivo dose–response data using PBK modelling-based reverse dosimetry” section. The fraction of 3-OHBaP bound to protein in the blood protein compartment (fb, in vivo) was calculated as 1 minus the fub, in vivo. […] Clearance of 3-OHBaP was assumed to result from hepatic and pulmonary conjugation (Cohen [1990]; Cohen and Moore [1976]). […]
For oral exposure, stomach emptying and intestinal transfer of the parent compound were included. […] The Papp, in vivo was calculated using the following equation: log (Papp, in vivo) = 0.6836 × log (Papp, Caco−2) − 0.5579 (Sun et al. [2002]) and applied in the model as described before (Zhang et al. [2018]). […]

[5] = 3-OHBaP in rat blood, read-out: Cmax reported, cited from earlier work
[6] = Sulfation of 3-OHBaP in incubations with rat liver S9; assay type: in vitro ADME; conditions: male, SD, pooled rat liver S9, pH 7.4
Protocol: as §1
(§3) Incubations with rat liver and lung S9 fractions were optimized to establish linearity over time and protein concentrations for the rate of glucuronidation and sulfation of 3-OHBaP. […]
Hepatic sulfonation of 3-OHBaP was evaluated using pooled liver S9 fractions of male SD rats, in incubation mixtures with a final volume of 200 µl in conical glass vials containing (final concentrations) 0.1 mM Tris–HCl (pH 7.4), 0.1 mg/ml rat liver S9 and 0.2 mM PAPS.
(§4) All incubation mixtures were pre-incubated for 1 min, after which the reaction was initiated by addition of 3-OHBaP in final concentrations ranging from 0.01 to 50 µM (glucuronidation) or 0.01–100 µM (sulfation) added from 100 times concentrated stock solutions in DMSO to reach the final volume of 200 µl (1% DMSO v/v). […] The supernatant was collected and analysed by Ultra Performance Liquid Chromatography (UPLC). […]

[7] = Glucuronidation of 3-OHBaP in incubations with rat liver S9; assay type: in vitro ADME
Protocol: as §1, §3
Kinetics for 3-OHBaP glucuronidation, were quantified using incubations with pooled liver S9 fractions from male SD rats. […]
as §4

[8] = system: F-344 rat; test: In vivo reproductive toxicity of BaP (foetal survival), nasal inhalation; conditions: inhalation expressed as oral dose equivalent, data of Archibong et al. (2002)
Protocol: Foetal survival, calculated as the fraction of live foetuses relative to the number of implantation sites reported in these studies, was taken as measure for in vivo reproductive toxicity. […] These oral dose equivalents in mg/kg bw were used for the comparison with model predicted dose–response data.
ED50 values were calculated for the predicted and reported dose–response data, using the non-linear regression with three parameters in Graphpad Prism version 9.0.1 for Windows (GraphPad Software, San Diego, California USA). The ED50 value was calculated for the fraction differentiated into beating cardiomyocytes for the predicted dose–response data. For the in vivo studies, foetus survival (number of live foetuses as fraction of total implantations) was used as response.

[9] = system: Caco-2 cells; conditions: cited from earlier work
[10] = assay type: in vitro ADME; conditions: rat, 30 min, pH 7.4
Protocol: as §2
The UPLC was equipped with a Photodiode Array (PDA) detector, recording wavelengths between 190 and 400 nm and a Phenomenex C18 column (Phenomenex, Torrance, California, United States). […] Under these conditions the metabolite 3-OHBaP, detected at 258 nm, eluted at 10.16 min. […] The amounts of 3-OHBaP in the microsomal incubation sample and of glucuronidated and sulfated 3-OHBaP in the S9 incubation samples were quantified by integrating peak areas at their respective wavelengths using a calibration curve prepared with commercially available 3-OHBaP. […]

[11] = rat, in vivo; cited from earlier work
[12] = formation of the metabolite from BaP, rat liver microsomes

## Oc1ccc2ccc3c4ccccc4cc4ccc1c2c43 [3-OHBaP, 3-hydroxybenzo[a]pyrene]
[1]; [12]
  Vmax: 162.2 ± 47.6 pmol/min/mg microsomal protein
[2]
  Tissue:blood partition coefficient, fat: 401
  Tissue:blood partition coefficient, liver: 12.24
  Tissue:blood partition coefficient, lung: 12.24
  Tissue:blood partition coefficient, rapidly perfused tissue: 12.24
  Tissue:blood partition coefficient, slowly perfused tissue: 6.43
[3]
  Result in the EST: induces developmental toxicity
[4]
  Cmax reported relative to predicted Cmax (fold higher): 1.1 fold
[5]; intratracheal 10 mg/kg bw BaP, ref Moreau and Bouchard (2015)
  Cmax: 140 nM
[5]; intravenous 10 mg/kg bw BaP, ref Marie et al. (2010)
  Cmax: 720 nM
[5]; intravenous 10 mg/kg bw BaP, ref Moreau and Bouchard (2015)
  Cmax: 220 nM
[5]; oral 10 mg/kg bw BaP, ref Moreau and Bouchard (2015)
  Cmax: 100 nM
[6]
  Km at 70 min: 17 µM
[7]; glucuronidation
  Concentration at which substrate inhibition occurred: ≥ 50000 nM
[7]; male, SD, pooled rat liver S9, pH 7.4, glucuronidation of 3-OHBaP
  Km at 20 min: 10 µM

## O=C1C=Cc2ccc3c4c(ccc1c24)-c1ccccc1C3=O [B[a]P-1,6-quinone]
[1]; [12]
  Vmax: 22.2 ± 3.2 pmol/min/mg microsomal protein

## O=C1C=Cc2ccc3c4c(ccc1c24)C(=O)c1ccccc1-3 [B[a]P-3,6-quinone]
[1]; [12]
  Vmax: 3.0 ± 0.5 pmol/min/mg microsomal protein

## c1ccc2c(c1)cc1ccc3cccc4ccc2c1c34 [BaP, benzo[a]pyrene]
[8]
  ED50 derived from reported in vivo dose-response data: 29 mg/kg bw per day
[1]; rat, 30 min, pH 7.4
  Vmax: 0.16 nmol/min/mg microsomal protein
  Vmax scaled to the whole liver: 4.1 µmol/min/liver
[1]; rat, pH 7.4, Km
  Km at 30 min: 34 µM
[9]
  Log Papp, Caco-2: -5.42
  Papp, Caco-2: 3.8 x1E-6 cm/sec
[10]; 200 µM
  Rate of 3-OHBaP formation: 0.81 pmol/min/mg protein
[10]
  Formation of 3-OHBaP in lung microsomes: did not result in formation of detectable levels of 3-OHBaP
[11]
  Blood concentration in maternal versus foetal blood: similar
